Among the data in ChEMBL document CHEMBL5252509, “In depth analysis of kinase cross screening data to identify chemical starting points for inhibition of the Nek family of kinases” (Medchemcomm, 2018) are inhibition values, retold here.

In assay [1] the target is T1, Serine/threonine-protein kinase Nek11 (Homo sapiens) (UniProt Q8NG66).
T1 sequence (whole entry): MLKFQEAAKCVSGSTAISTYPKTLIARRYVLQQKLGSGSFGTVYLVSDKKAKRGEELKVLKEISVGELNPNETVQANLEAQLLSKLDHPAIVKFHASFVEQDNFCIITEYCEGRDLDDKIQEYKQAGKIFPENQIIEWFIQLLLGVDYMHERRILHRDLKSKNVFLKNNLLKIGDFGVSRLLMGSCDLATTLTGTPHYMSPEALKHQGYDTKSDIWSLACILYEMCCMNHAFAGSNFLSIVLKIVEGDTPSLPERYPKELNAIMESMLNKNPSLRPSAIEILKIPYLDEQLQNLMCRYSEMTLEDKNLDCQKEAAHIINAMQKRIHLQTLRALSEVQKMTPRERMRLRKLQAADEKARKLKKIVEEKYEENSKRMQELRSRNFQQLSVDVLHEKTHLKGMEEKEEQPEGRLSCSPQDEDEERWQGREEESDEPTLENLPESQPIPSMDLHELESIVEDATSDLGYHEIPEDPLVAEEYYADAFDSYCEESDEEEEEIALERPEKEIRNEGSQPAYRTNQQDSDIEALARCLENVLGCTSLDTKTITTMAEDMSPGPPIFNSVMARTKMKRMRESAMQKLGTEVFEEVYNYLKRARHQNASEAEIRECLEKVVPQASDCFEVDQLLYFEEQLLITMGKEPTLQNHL
Nature of the assay: Inhibition of NEK11 (unknown origin) at 1 uM relative to control.

Assay [2] addresses Serine/threonine-protein kinase Nek7 (Homo sapiens) (UniProt Q8TDX7). Nature of the assay: Inhibition of NEK7 (unknown origin) at 1 uM relative to control.
The target of assay [3] is T2, Serine/threonine-protein kinase Nek5 (Homo sapiens) (UniProt Q6P3R8).
T2 sequence (whole entry): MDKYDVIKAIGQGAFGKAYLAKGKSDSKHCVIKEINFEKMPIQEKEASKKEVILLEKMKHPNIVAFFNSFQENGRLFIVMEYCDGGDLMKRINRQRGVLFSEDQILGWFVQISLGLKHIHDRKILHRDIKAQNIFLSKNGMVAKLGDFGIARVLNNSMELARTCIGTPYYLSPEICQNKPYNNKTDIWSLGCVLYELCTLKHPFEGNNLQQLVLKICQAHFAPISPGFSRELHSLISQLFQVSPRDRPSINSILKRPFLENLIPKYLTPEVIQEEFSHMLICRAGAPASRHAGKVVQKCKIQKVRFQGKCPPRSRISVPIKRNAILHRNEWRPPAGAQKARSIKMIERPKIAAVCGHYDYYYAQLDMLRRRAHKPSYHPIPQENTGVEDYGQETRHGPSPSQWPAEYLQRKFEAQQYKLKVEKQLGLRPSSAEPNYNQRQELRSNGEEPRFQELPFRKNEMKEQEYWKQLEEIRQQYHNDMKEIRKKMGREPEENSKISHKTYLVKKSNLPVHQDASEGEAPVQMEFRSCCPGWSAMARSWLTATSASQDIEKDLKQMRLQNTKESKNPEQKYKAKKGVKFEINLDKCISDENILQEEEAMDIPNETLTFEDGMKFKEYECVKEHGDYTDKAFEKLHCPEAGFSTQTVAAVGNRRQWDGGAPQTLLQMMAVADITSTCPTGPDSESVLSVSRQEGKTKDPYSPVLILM
Nature of the assay: Inhibition of NEK5 (unknown origin) at 1 uM relative to control.

Assay [4] addresses T3, Serine/threonine-protein kinase Nek10 (Homo sapiens) (UniProt Q6ZWH5).
T3 sequence (whole entry): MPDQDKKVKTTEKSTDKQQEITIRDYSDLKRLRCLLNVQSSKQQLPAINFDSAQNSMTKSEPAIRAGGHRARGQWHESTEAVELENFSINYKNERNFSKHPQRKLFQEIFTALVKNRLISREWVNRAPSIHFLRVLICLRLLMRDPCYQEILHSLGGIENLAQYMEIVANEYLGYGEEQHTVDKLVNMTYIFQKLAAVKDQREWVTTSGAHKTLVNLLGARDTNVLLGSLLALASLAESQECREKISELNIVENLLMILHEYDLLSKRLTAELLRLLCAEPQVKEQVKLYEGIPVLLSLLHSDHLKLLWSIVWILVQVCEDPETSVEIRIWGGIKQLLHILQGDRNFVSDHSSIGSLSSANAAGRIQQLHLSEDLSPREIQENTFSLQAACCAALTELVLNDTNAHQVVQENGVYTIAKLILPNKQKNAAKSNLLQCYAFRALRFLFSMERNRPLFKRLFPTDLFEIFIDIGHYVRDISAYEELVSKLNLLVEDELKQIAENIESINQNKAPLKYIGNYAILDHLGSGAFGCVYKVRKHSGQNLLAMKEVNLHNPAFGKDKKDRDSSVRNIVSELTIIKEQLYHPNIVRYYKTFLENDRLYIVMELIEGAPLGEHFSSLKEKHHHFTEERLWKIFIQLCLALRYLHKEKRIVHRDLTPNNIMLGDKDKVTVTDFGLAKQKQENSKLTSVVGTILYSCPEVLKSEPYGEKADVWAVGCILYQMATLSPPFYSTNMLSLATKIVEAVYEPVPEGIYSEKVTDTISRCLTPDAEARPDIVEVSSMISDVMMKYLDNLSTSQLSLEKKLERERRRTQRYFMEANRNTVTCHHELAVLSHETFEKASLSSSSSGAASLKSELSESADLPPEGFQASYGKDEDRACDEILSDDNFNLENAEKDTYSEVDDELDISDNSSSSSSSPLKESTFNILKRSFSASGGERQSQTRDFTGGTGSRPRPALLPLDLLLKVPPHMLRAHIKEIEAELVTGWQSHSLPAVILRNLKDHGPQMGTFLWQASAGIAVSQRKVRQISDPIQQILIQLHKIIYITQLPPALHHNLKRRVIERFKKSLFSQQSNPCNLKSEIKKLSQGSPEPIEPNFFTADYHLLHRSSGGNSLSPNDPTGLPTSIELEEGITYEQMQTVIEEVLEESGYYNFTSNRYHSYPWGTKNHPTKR
Nature of the assay: Inhibition of NEK10 (unknown origin) at 1 uM relative to control.

“And” between values parts separate entries of the source, which are not always exact repeats. Equal values may be shown once.

Serine/threonine-protein kinase Nek7 (Homo sapiens), sequence (Q8TDX7 whole entry, looked up): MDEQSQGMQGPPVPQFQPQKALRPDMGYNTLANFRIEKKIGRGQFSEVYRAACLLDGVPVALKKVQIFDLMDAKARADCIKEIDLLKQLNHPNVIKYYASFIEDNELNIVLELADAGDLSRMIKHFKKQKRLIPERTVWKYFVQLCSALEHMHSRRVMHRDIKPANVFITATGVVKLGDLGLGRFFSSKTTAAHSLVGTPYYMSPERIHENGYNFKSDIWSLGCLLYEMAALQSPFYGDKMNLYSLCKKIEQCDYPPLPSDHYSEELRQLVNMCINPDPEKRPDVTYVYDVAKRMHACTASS

For the compound `COc1cc(Nc2ncc3c(C)nc(-c4cc5ccccc5[nH]4)n3n2)cc(OC)c1OC`, the inhibition in assay [1] was 86%; in assay [2] it was 70%; in assay [3], 93.1% and 99%; in assay [4], 0%.

For `Nc1ncc(-c2cccnc2)c2scc(-c3ccc4c(c3)CCN4C(=O)Cc3ccccc3)c12`, the inhibition in assay [1] is 44%; in assay [2], 19%; in assay [3] it was 22%; in assay [4] it was 14%.

For `COc1cccc(C2=C(Nc3ccc(Cl)c(C(=O)O)c3)C(=O)NC2=O)c1`, the inhibition came out at 27% in assay [1], 0% in assay [2], 3% in assay [3] and 73% in assay [4].

On to `CS(=O)(=O)Nc1ccc(-c2ccnc3[nH]ccc23)cc1`, for which the inhibition came to 17% in assay [1], 10% in assay [2], 2% in assay [3] and 71% in assay [4].

Turning to `COc1cccc(C2=C(Nc3cccc(Cl)c3)C(=O)NC2=O)c1`, the inhibition amounted to 0% in assay [1], 5% in assay [2], 0% in assay [3] and 73% in assay [4].

Turning to `Cc1ccccc1CC(=O)N1CCc2cc(-c3cn(C)c4ncnc(N)c34)ccc21`, the inhibition in assay [1] turned out to be 58%; in assay [2], 0%; in assay [3], 34%; in assay [4], 0%.

Consider `COc1cccc(CC(=O)N2CCc3cc(-c4cn(C)c5ncnc(N)c45)ccc32)c1`, for which the inhibition in assay [1] was found to be 49%; in assay [2], 11%; in assay [3], 24%; in assay [4], 7%.

With `Cn1cc(-c2cnc(N)c3c(-c4ccc5c(c4)CCN5C(=O)Cc4ccccc4)csc23)cn1`, the inhibition is 47% in assay [1], 0% in assay [2], 5% in assay [3] and 22% in assay [4].

As to `Cn1cc(-c2ccc3c(c2)CCN3C(=O)Cc2cccc(C(F)(F)F)c2)c2c(N)ncnc21`, the inhibition in assay [1] is 14%; in assay [2] it was 11%; in assay [3], 0%; in assay [4], 18%.

For the compound `O=S(=O)(c1ccc(-c2ccnc3[nH]ccc23)cc1)N1CCCC1`, the inhibition is 0% in assay [1], 20% in assay [2], 31% in assay [3] and 15% in assay [4].

For `CC(C)Oc1ccc2c(-c3ccnc(Nc4ccc(N5CCN(C)CC5)cc4)n3)cnn2n1`, the inhibition stood at 14% in assay [1], 7.4% in assay [2], 0% in assay [3] and 2.4% in assay [4].

Consider `Cn1cc(-c2ccc3c(c2)CCN3C(=O)Cc2cccc(F)c2)c2c(N)ncnc21`, for which the inhibition in assay [1] is 8%; in assay [2], 0%; in assay [3], 28%; in assay [4] it was 22%.

`Nc1nccc2scc(-c3ccc4c(c3)CCN4C(=O)Cc3ccccc3)c12`: the inhibition in assay [1] came out at 0%; in assay [2] it was 0%; in assay [3] it was 14%; in assay [4] it was 9%.

Regarding `Nc1nccc2scc(-c3ccc4c(c3)CCN4C(=O)Cc3cc(F)ccc3F)c12`, the inhibition in assay [1] is 9%; in assay [2], 0%; in assay [3], 6%; in assay [4] it was 12%.

With `Nc1ncc(-c2cn[nH]c2)c2scc(-c3ccc4c(c3)CCN4C(=O)Cc3ccccc3)c12`, the inhibition in assay [1] is 87%; in assay [2], 0%; in assay [3], 21%; in assay [4], 22%.

As for `NCCNS(=O)(=O)c1ccc(-c2ccnc3[nH]ccc23)cc1`, the inhibition in assay [1] is 24%; in assay [2], 0%; in assay [3], 44%; in assay [4], 69%.

In the case of `c1ccc(-c2ccnc3[nH]ccc23)cc1`, the inhibition in assay [1] was found to be 0%; in assay [2] it was 0%; in assay [3], 8%; in assay [4], 30%.

In the case of `Cn1cc(-c2ccc3c(c2)CCN3C(=O)Cc2cc(F)cc(C(F)(F)F)c2)c2c(N)ncnc21`, the inhibition was 8% in assay [1], 0% in assay [2], 0% in assay [3] and 6% in assay [4].

With `O=C1NC(=O)C(c2ccccc2Cl)=C1Nc1cccc(Cl)c1`, the inhibition came to 0% in assay [1], 16% in assay [2], 7% in assay [3] and 51% in assay [4].

With `Cn1cc(-c2ccc3c(c2)CCN3C(=O)Cc2cccc(Cl)c2)c2c(N)ncnc21`, the inhibition stood at 0% in assay [1], 0% in assay [2], 32% in assay [3] and 18% in assay [4].

With `O=c1[nH]ccc2nc(N[C@@H]3CCCNC3)nc(Nc3ccc(S(=O)(=O)N4CCOCC4)cc3)c12`, the inhibition in assay [1] stood at 100%; in assay [2], 65%; in assay [3], 49%; in assay [4], 4.4%.

Turning to `CC(C)c1nc(-c2cccc(NS(=O)(=O)c3c(F)cccc3F)c2F)c(-c2ccnc(Nc3ccc(N4CCOCC4)nc3)n2)s1`, the inhibition in assay [1] turned out to be 1.4%; in assay [2] it was 7.1%; in assay [3] it was 24%; in assay [4] it was 100%.

In the case of `CN(C)CCNS(=O)(=O)c1ccc(-c2ccnc3[nH]ccc23)cc1`, the inhibition in assay [1] came to 0%; in assay [2] it was 0%; in assay [3], 1%; in assay [4], 17%.

In the case of `Cn1cc(-c2ccc3c(c2)CCN3C(=O)Cc2ccccc2Cl)c2c(N)ncnc21`, the inhibition in assay [1] worked out at 0%; in assay [2], 17%; in assay [3], 7%; in assay [4] it was 0%.

For `COc1ccc(Nc2ncc(C#N)c(Nc3ccccc3C(N)=O)n2)cc1N1CCN(C)CC1`, the inhibition came to 2.5% in assay [1], 2.6% in assay [2], 0% in assay [3] and 5.9% in assay [4].

By inhibition is commonly meant the share of the control response that was lost under treatment. High values mean a strong effect, low ones a weak effect.
